From ChEMBL document CHEMBL3046731, “Synthesis and antifungal activity of 1-substitutedphenyl-3-(5-halobenzimidazol-2-yl) acylurea” (J Pestic Sci, 2010) come the findings set out here.

In one assay the test system is Botrytis cinerea. Nature of the assay: Antifungal activity against Botryotinia fuckeliana assessed as inhibition of mycelium growth on potato dextrose agar at 25 +/- 1 degC for 96 hr. It is filed as functional, organism-based.
The test system of another assay is Sclerotinia sclerotiorum. Nature of the assay: Antifungal activity against Sclerotinia sclerotiorum assessed as inhibition of mycelium growth on potato dextrose agar at 25 +/- 1 degC for 96 hr. In kind it is functional, organism-based.

Values after ≈ are worked out from the molar mass of the structure shown.

For the molecule `O=C(NC(=O)c1nc2cc(Cl)ccc2[nH]1)Nc1ccccc1`, the EC50 with Botrytis cinerea came to 22.4 µg/mL (≈ 71.2 µM); in the assay with Sclerotinia sclerotiorum, 11.7 µg/mL (≈ 37 µM).

Take `O=C(NC(=O)c1nc2cc(Cl)ccc2[nH]1)Nc1ccc(F)cc1`: the EC50 in the assay with Botrytis cinerea came out at 8.76 µg/mL (≈ 26.3 µM); in the assay with Sclerotinia sclerotiorum, 6.23 µg/mL (≈ 18.7 µM).

Regarding `O=C(NC(=O)c1nc2cc(Cl)ccc2[nH]1)Nc1ccc(Cl)cc1`, the EC50 came to 18.9 µg/mL (≈ 54 µM) with Botrytis cinerea and 6.05 µg/mL (≈ 17.3 µM) with Sclerotinia sclerotiorum.

Take `O=C(NC(=O)c1nc2cc(Cl)ccc2[nH]1)Nc1ccc(Cl)c(Cl)c1`: the results for the EC50 in the assay on Botrytis cinerea and in the assay on Sclerotinia sclerotiorum were 12.6 µg/mL (≈ 33 µM) and 5.5 µg/mL (≈ 14.3 µM), respectively.

Turning to `O=C(NC(=O)c1nc2cc(Cl)ccc2[nH]1)Nc1ccc(Br)cc1`, the EC50 in the assay with Botrytis cinerea is 3.94 µg/mL (≈ 10 µM); with Sclerotinia sclerotiorum, 9.28 µg/mL (≈ 23.6 µM).

For `O=C(NC(=O)c1nc2cc(Cl)ccc2[nH]1)Nc1ccc([N+](=O)[O-])cc1`, the EC50 in the assay on Botrytis cinerea was found to be 30.7 µg/mL (≈ 85.4 µM); in the assay with Sclerotinia sclerotiorum it was 9.14 µg/mL (≈ 25.4 µM).

For `O=C(NC(=O)c1nc2cc(F)ccc2[nH]1)Nc1ccccc1`, the EC50 in the assay on Botrytis cinerea was found to be 19.9 µg/mL (≈ 66.9 µM); in the assay on Sclerotinia sclerotiorum, 6.55 µg/mL (≈ 22 µM).

With `O=C(NC(=O)c1nc2cc(F)ccc2[nH]1)Nc1ccc(F)cc1`, the EC50 in the assay with Botrytis cinerea and in the assay with Sclerotinia sclerotiorum was 10.9 µg/mL (≈ 34.6 µM) in each case.

On to `O=C(NC(=O)c1nc2cc(F)ccc2[nH]1)Nc1ccc(Cl)cc1`, for which the figures for the EC50 with Botrytis cinerea and with Sclerotinia sclerotiorum were 4.65 µg/mL (≈ 14 µM) and 14.6 µg/mL (≈ 43.9 µM), respectively.

As for `O=C(NC(=O)c1nc2cc(F)ccc2[nH]1)Nc1ccc(Cl)c(Cl)c1`, the EC50 in the assay with Botrytis cinerea was 11.5 µg/mL (≈ 31.5 µM); in the assay on Sclerotinia sclerotiorum, 9.03 µg/mL (≈ 24.6 µM).

Take `O=C(NC(=O)c1nc2cc(F)ccc2[nH]1)Nc1ccc(Br)cc1`: the EC50 in the assay with Botrytis cinerea is 13.6 µg/mL (≈ 36.1 µM); with Sclerotinia sclerotiorum it was 8.66 µg/mL (≈ 23 µM).

As to `O=C(NC(=O)c1nc2cc(F)ccc2[nH]1)Nc1ccc([N+](=O)[O-])cc1`, the figures for the EC50 in the assay with Botrytis cinerea and in the assay on Sclerotinia sclerotiorum were 10.4 µg/mL (≈ 30.2 µM) and 8.71 µg/mL (≈ 25.4 µM), respectively.

As for `COC(=O)NC(=S)Nc1ccccc1NC(=S)NC(=O)OC` [THIOPHANATE METHYL], the EC50 with Botrytis cinerea was determined as 1.03 µg/mL (≈ 3.01 µM); with Sclerotinia sclerotiorum it was 10.5 µg/mL (≈ 30.5 µM).
